# Laboratory results reported in patent publication EP1432683B9 (Recordati Ireland Limited, priority 2001, dated 2003).
# Several values for one entry are separate records, joined by “and”; a condition that tells them apart may be missing. Identical values can stand only once. Counter-ions that a name gives are not always drawn. Like-named read-outs stand apart in the source and are kept apart here. Marks after values point to notes of the source that are not given here.
# How the values were obtained:
# [1] = Hygroscopicity by DVS analysis; format: physicochemical; details: 25°C, whole RH range tested
# Method: The hygroscopicity of both crystalline Forms (I) and (II) was measured with DVS analysis by means of a water absorption analyzer (SURFACE MEASUREMENT SYSTEM, Marion, Buckinghamshire, UK) according to the following working conditions: […]
# [2] = Solubility in water and in ethanol at room temperature (UV-Visible spectroscopy); format: physicochemical
# Excerpt: The molar absorptivity had been previously determined in acetonitrile. The same molar absorptivity was considered for the determination in water and in ethanol. Solubility in water certainly depends on pH. The residual solid obtained by filtration of the suspension was immediately analyzed with Raman spectroscopy.
# [3] = Solubility in mixtures of water-ethanol at 25°C and 40°C; format: physicochemical; details: at both 25°C and 40°C
# [4] = Relative bioavailability of Form (I) and Form (II) in man; format: in vivo
# Method: Blood samples were taken at 15 points from time 0 to 24 h post-dosing and plasma concentrations of lercanidipine were determined with a stereoselective analytical method HPLC-MS/MS.
# [5] = Bioavailability of crystalline Forms (I) and (II) in dogs; format: in vivo, Beagle dogs
# Method: A study was carried out on six Beagle dogs to evaluate the bioavailability of crystalline Forms (I) and (II).
# Blood samples were taken at given times and plasma concentrations of lercanidipine were determined with a stereoselective analytical method HPLC-MS/MS, according to the following working conditions;
# Lercanidipine was extracted from dog plasma by means of a liquid-liquid extraction with a mixture of n-hexane and ethyl ether. The dry residue of the organic phase was taken up with a mixture of methanol and water and a liquid-phase chromatographic separation (LC) was carried out; the two enantiomers of lercanidipine were separated on a CHIROBIOTIC V column (Vancomycin) (particle size […], column size 150 x 4.6 mm (ASTEC, NJ, USA)) and were detected with a mass spectrometer (MS/MS) by using an electrospray technique.
# The analytical method was validated in a concentration range between 0.1 and 20 ng/ml of plasma for both enantiomers. The method has shown to be specific with an accuracy of 15%. The average concentrations of lercanidipine in the tables represent the sum of both enantiomers.
# [6] = Dog 1, oral 3 mg/kg, hydrochloride, 3 mg/kg
# [7] = Dog 2 (not included in mean), oral 3 mg/kg, hydrochloride, 3 mg/kg
# [8] = Dog 3, oral 3 mg/kg, hydrochloride, 3 mg/kg
# [9] = Dog 4, oral 3 mg/kg, hydrochloride, 3 mg/kg
# [10] = Dog 5, oral 3 mg/kg, hydrochloride, 3 mg/kg
# [11] = Mean (n=5, Dog 2 not included), oral 3 mg/kg, hydrochloride, 3 mg/kg
compound,measurement,setting,value
"COC(=O)C1=C(C)NC(C)=C(C(=O)OC(C)(C)CN(C)CCC(c2ccccc2)c2ccccc2)C1c1cccc([N+](=O)[O-])c1 (single isomer, unassigned) [Form (II), lercanidipine hydrochloride]",mass variation,[1],< 0.05%
same,Solubility compared with Form (I),[2],less soluble than Form (I) in both solvents
same,water concentration at which the maximum solubility is reached,[3],20%
same,bioequivalence to Form I,[4]; 10 mg tablet,not bioequivalent to Form I
same,AUC0-t,"[4]; 10 mg tablet, single dose, geom. least square mean, 1440 min, hydrochloride",10.36 ng·h/mL
same,Cmax,"[4]; 10 mg tablet, single dose, geom. least square mean, hydrochloride",3.22 ng/mL
same,Tmax,"[4]; 10 mg tablet, single dose, median, hydrochloride",2.50* h
same,"tmax Point Estimate (T/R), median difference","[4]; Test = Form (II) tablet, Reference = Form (I) tablet (Zanedip)",0.75** h
same,AUC0-t,[5]; [6],54.59 ng/h/mL
same,Cmax,[5]; [6],18.46 ng/mL
same,Tmax,[5]; [6],3.00 h
same,AUC0-t,[5]; [7],119.77 ng/h/mL
same,Cmax,[5]; [7],52.19 ng/mL
same,Tmax,[5]; [7],1.50 h
same,AUC0-t,[5]; [8],75.62 ng/h/mL
same,Tmax,[5]; [8],1.50 h
same,AUC0-t,[5]; [9],173.82 ng/h/mL
same,Tmax,[5]; [9],4.00 h
same,AUC0-t,[5]; [10],142.34 ng/h/mL
same,Cmax,[5]; [10],55.38 ng/mL
same,Tmax,[5]; [10],2.00 h
same,Tmax,"[5]; Dog 6, oral 3 mg/kg",6.00 h
same,AUC0-t,"[5]; Dog 6, oral 3 mg/kg, hydrochloride, 3 mg/kg",61.91 ng/h/mL
same,AUC0-t,[5]; [11],104.68 ng/h/mL
same,Cmax,[5]; [11],36.17 ng/mL
same,Tmax,[5]; [11],3.00 h
same,concentration in plasma of lercanidipine (S+R),"[5]; Time 0 h, Dog 1, oral 3 mg/kg",0.00 ng/mL
same,concentration in plasma of lercanidipine (S+R),"[5]; Time 0 h, Dog 2 (not included in mean), oral 3 mg/kg",0.00 ng/mL
same,concentration in plasma of lercanidipine (S+R),"[5]; Time 0 h, Dog 3, oral 3 mg/kg",0.00 ng/mL
same,concentration in plasma of lercanidipine (S+R),"[5]; Time 0 h, Dog 4, oral 3 mg/kg",0.00 ng/mL
same,concentration in plasma of lercanidipine (S+R),"[5]; Time 0 h, Dog 5, oral 3 mg/kg",0.00 ng/mL
same,concentration in plasma of lercanidipine (S+R),"[5]; Time 0 h, Dog 6, oral 3 mg/kg",0.00 ng/mL
same,concentration in plasma of lercanidipine (S+R),"[5]; Time 0 h, Mean (Dog 2 not included), oral 3 mg/kg",0.00 ng/mL
same,concentration in plasma of lercanidipine (S+R),"[5]; Time 0.5 h, Dog 1, oral 3 mg/kg, hydrochloride, 3 mg/kg",0.00 ng/mL
same,concentration in plasma of lercanidipine (S+R),"[5]; Time 0.5 h, Dog 2 (not included in mean), oral 3 mg/kg, hydrochloride, 3 mg/kg, 30 min",22.67 ng/mL
same,concentration in plasma of lercanidipine (S+R),"[5]; Time 0.5 h, Dog 4, oral 3 mg/kg",0.00 ng/mL
same,concentration in plasma of lercanidipine (S+R),"[5]; Time 0.5 h, Dog 5, oral 3 mg/kg",0.00 ng/mL
same,concentration in plasma of lercanidipine (S+R),"[5]; Time 0.5 h, Dog 6, oral 3 mg/kg",0.00 ng/mL
same,concentration in plasma of lercanidipine (S+R),"[5]; Time 1 h, Dog 1, oral 3 mg/kg, hydrochloride, 3 mg/kg",0.00 ng/mL
same,concentration in plasma of lercanidipine (S+R),"[5]; Time 1 h, Dog 2 (not included in mean), oral 3 mg/kg, hydrochloride, 3 mg/kg, 60 min",52.13 ng/mL
same,concentration in plasma of lercanidipine (S+R),"[5]; Time 1 h, Dog 6, oral 3 mg/kg",0.00 ng/mL
same,concentration in plasma of lercanidipine (S+R),"[5]; Time 1 h, Mean (Dog 2 not included), oral 3 mg/kg, hydrochloride, 3 mg/kg, 60 min",5.08 ng/mL
same,concentration in plasma of lercanidipine (S+R),"[5]; Time 1.5 h, Dog 1, oral 3 mg/kg, hydrochloride, 3 mg/kg, 90 min",0.23 ng/mL
same,concentration in plasma of lercanidipine (S+R),"[5]; Time 1.5 h, Dog 2 (not included in mean), oral 3 mg/kg, hydrochloride, 3 mg/kg, 90 min",52.19 ng/mL
same,concentration in plasma of lercanidipine (S+R),"[5]; Time 1.5 h, Dog 3, oral 3 mg/kg, hydrochloride, 3 mg/kg, 90 min",19.78 ng/mL
same,concentration in plasma of lercanidipine (S+R),"[5]; Time 1.5 h, Dog 5, oral 3 mg/kg, hydrochloride, 3 mg/kg, 90 min",32.69 ng/mL
same,concentration in plasma of lercanidipine (S+R),"[5]; Time 1.5 h, Mean (Dog 2 not included), oral 3 mg/kg, hydrochloride, 3 mg/kg, 90 min",18.32 ng/mL
same,concentration in plasma of lercanidipine (S+R),"[5]; Time 2 h, Dog 2 (not included in mean), oral 3 mg/kg, hydrochloride, 3 mg/kg, 120 min",35.45 ng/mL
same,concentration in plasma of lercanidipine (S+R),"[5]; Time 2 h, Dog 3, oral 3 mg/kg, hydrochloride, 3 mg/kg, 120 min",17.81 ng/mL
same,concentration in plasma of lercanidipine (S+R),"[5]; Time 2 h, Dog 4, oral 3 mg/kg, hydrochloride, 3 mg/kg, 120 min",38.10 ng/mL
same,concentration in plasma of lercanidipine (S+R),"[5]; Time 2 h, Dog 5, oral 3 mg/kg, hydrochloride, 3 mg/kg, 120 min",55.38 ng/mL
same,concentration in plasma of lercanidipine (S+R),"[5]; Time 2 h, Dog 6, oral 3 mg/kg, hydrochloride, 3 mg/kg, 120 min",10.19 ng/mL
same,concentration in plasma of lercanidipine (S+R),"[5]; Time 2 h, Mean (Dog 2 not included), oral 3 mg/kg, hydrochloride, 3 mg/kg, 120 min",25.82 ng/mL
same,concentration in plasma of lercanidipine (S+R),"[5]; Time 3 h, Dog 1, oral 3 mg/kg, hydrochloride, 3 mg/kg, 180 min",18.46 ng/mL
same,concentration in plasma of lercanidipine (S+R),"[5]; Time 3 h, Dog 2 (not included in mean), oral 3 mg/kg, hydrochloride, 3 mg/kg, 180 min",17.43 ng/mL
same,concentration in plasma of lercanidipine (S+R),"[5]; Time 3 h, Dog 3, oral 3 mg/kg, hydrochloride, 3 mg/kg, 180 min",15.80 ng/mL
same,concentration in plasma of lercanidipine (S+R),"[5]; Time 3 h, Mean (Dog 2 not included), oral 3 mg/kg, hydrochloride, 3 mg/kg, 180 min",23.46 ng/mL
same,concentration in plasma of lercanidipine (S+R),"[5]; Time 4 h, Dog 1, oral 3 mg/kg, hydrochloride, 3 mg/kg, 240 min",14.83 ng/mL
same,concentration in plasma of lercanidipine (S+R),"[5]; Time 4 h, Dog 2 (not included in mean), oral 3 mg/kg, hydrochloride, 3 mg/kg, 240 min",5.17 ng/mL
same,concentration in plasma of lercanidipine (S+R),"[5]; Time 4 h, Dog 4, oral 3 mg/kg, hydrochloride, 3 mg/kg, 240 min",52.64 ng/mL
same,concentration in plasma of lercanidipine (S+R),"[5]; Time 4 h, Dog 6, oral 3 mg/kg, hydrochloride, 3 mg/kg, 240 min",13.24 ng/mL
same,concentration in plasma of lercanidipine (S+R),"[5]; Time 4 h, Mean (Dog 2 not included), oral 3 mg/kg, hydrochloride, 3 mg/kg, 240 min",23.69 ng/mL
same,concentration in plasma of lercanidipine (S+R),"[5]; Time 6 h (last sampling time), Mean (Dog 2 not included), oral 3 mg/kg, hydrochloride, 3 mg/kg, 360 min",10.9 ± 6.8 ng/mL and 10.89 ng/mL
same,concentration in plasma of lercanidipine (S+R),"[5]; Time 6 h, Dog 1, oral 3 mg/kg, hydrochloride, 3 mg/kg, 360 min",8.05 ng/mL
same,concentration in plasma of lercanidipine (S+R),"[5]; Time 6 h, Dog 2 (not included in mean), oral 3 mg/kg, hydrochloride, 3 mg/kg, 360 min",4.50 ng/mL
same,concentration in plasma of lercanidipine (S+R),"[5]; Time 6 h, Dog 3, oral 3 mg/kg, hydrochloride, 3 mg/kg, 360 min",3.62 ng/mL
same,concentration in plasma of lercanidipine (S+R),"[5]; Time 6 h, Dog 4, oral 3 mg/kg, hydrochloride, 3 mg/kg, 360 min",17.46 ng/mL
same,concentration in plasma of lercanidipine (S+R),"[5]; Time 6 h, Dog 5, oral 3 mg/kg, hydrochloride, 3 mg/kg, 360 min",6.76 ng/mL
same,concentration in plasma of lercanidipine (S+R),"[5]; Time 6 h, Dog 6, oral 3 mg/kg, hydrochloride, 3 mg/kg, 360 min",18.56 ng/mL
same,Cmax,"[5]; dog, plasma, po, 3 mg/kg, Dog 3, read-out: Cmax",19.8 ng/mL
same,Cmax,"[5]; dog, plasma, po, 3 mg/kg, Dog 4, read-out: Cmax",52.6 ng/mL
same,Cmax,"[5]; dog, plasma, po, 3 mg/kg, Dog 6, read-out: Cmax",18.6 ng/mL
same,concentration at 0.5 h,"[5]; dog, plasma, po, 3 mg/kg, Time 0.5 h, Dog 3, read-out: concentration in plasma of lercanidipine (S+R)",6.99 ng/mL
same,concentration at 0.5 h,"[5]; dog, plasma, po, 3 mg/kg, Time 0.5 h, Mean (Dog 2 not included), read-out: concentration in plasma of lercanidipine (S+R)",1.4 ng/mL
same,concentration at 1 h,"[5]; dog, plasma, po, 3 mg/kg, Time 1 h, Dog 3, read-out: concentration in plasma of lercanidipine (S+R)",16.6 ng/mL
same,concentration at 1 h,"[5]; dog, plasma, po, 3 mg/kg, Time 1 h, Dog 4, read-out: concentration in plasma of lercanidipine (S+R)",5.5 ng/mL
same,concentration at 1 h,"[5]; dog, plasma, po, 3 mg/kg, Time 1 h, Dog 5, read-out: concentration in plasma of lercanidipine (S+R)",3.28 ng/mL
same,concentration at 1.5 h,"[5]; dog, plasma, po, 3 mg/kg, Time 1.5 h, Dog 4, read-out: concentration in plasma of lercanidipine (S+R)",35.4 ng/mL
same,concentration at 1.5 h,"[5]; dog, plasma, po, 3 mg/kg, Time 1.5 h, Dog 6, read-out: concentration in plasma of lercanidipine (S+R)",3.49 ng/mL
same,concentration at 2 h,"[5]; dog, plasma, po, 3 mg/kg, Time 2 h, Dog 1, read-out: concentration in plasma of lercanidipine (S+R)",7.63 ng/mL
same,concentration at 3 h,"[5]; dog, plasma, po, 3 mg/kg, Time 3 h, Dog 4, read-out: concentration in plasma of lercanidipine (S+R)",28.4 ng/mL
same,concentration at 3 h,"[5]; dog, plasma, po, 3 mg/kg, Time 3 h, Dog 5, read-out: concentration in plasma of lercanidipine (S+R)",40.6 ng/mL
same,concentration at 4 h,"[5]; dog, plasma, po, 3 mg/kg, Time 4 h, Dog 3, read-out: concentration in plasma of lercanidipine (S+R)",14.1 ng/mL
same,concentration at 4 h,"[5]; dog, plasma, po, 3 mg/kg, Time 4 h, Dog 5, read-out: concentration in plasma of lercanidipine (S+R)",23.7 ng/mL
